Laboratory results from article PMC9557897 (ACS Omega, 2022).
Values after ≈ are worked out from the molar mass of the structure shown.

What was measured:
[1] = tested on: herpes simplex virus 1 (HSV-1); test: Plaque reduction assay; assay type: cell-based; settings: Human alphaherpesvirus 1
ADV7 = settings: cited from earlier work

| SMILES | IC50 [1] [µg/mL] | EC50 (ADV7) [µg/mL] |
| --- | --- | --- |
| Nc1nc2c(ncn2COCCO)c(=O)[nH]1 [acyclovir] | 0.07 (≈ 0.311 µM) | – |
| NC(=O)c1ncn([C@@H]2O[C@H](CO)[C@@H](O)[C@H]2O)n1 [ribavirin] | – | 27.8 (≈ 114 µM) |
